# Source: US8101594B2, “Method for improving pancreatic functions” (Morinaga Milk Industry Co., Ltd., priority 2005, dated 2012)
# Tests used:
# [1] = tested on: db/db mice; experiment: Serum insulin level (insulin production ability protecting action) in db/db mice after 42 days of oral administration; format: in vivo; conditions: for Serum insulin levels on 43rd day of administration: male db/db mice, ELISA, negative sample 1.99 ± 0.66; for Pancreatic function (insulin production ability) protecting effect: 0.1 μg/animal; for Pancreatic function (insulin production ability) protecting effect / Serum insulin level as % of that observed in the negative test: 43rd day of continuous administration, db/db mice; for Serum insulin level as % of that observed in the negative test: 1 μg/animal
# Protocol: In this test, the endocrine gland cell functions (insulin production ability) protecting action of compounds having a lophenol skeleton was evaluated by using db/db mice known as a model animal of pancreatic hypofunction or pancreatic tissue dysfunction.
# 4-methyl-cholest-7-en-3-ol produced in Preparation Example mentioned above was used as test sample 1, 4-methyl-ergost-7-en-3-ol was used as test sample 2, and 4-methyl-stigmast-7-en-3-ol was used as test samples 3.
# In this test, 6-week old male db/db mice (purchased from Clea Japan, Inc.) were used. These mice were divided into groups, each consisting of 7 animals. Each test sample was dissolved in DMSO, and the concentration was adjusted to 0.1 or 1 μg/mL with physiological saline. The final DMSO concentration was adjusted to 0.2%. The pancreas dysfunction model mice were orally administered with 1 mL of the test sample once a day everyday for 42 days with a sonde. The serum insulin level was measured on the 43rd day of the continuous administration by using Lbis insulin mouse ELISA kit (Shibayagi Co., Ltd).
# [2] = tested on: db/db mice; experiment: Pancreatic tissue protecting action: number and maximum area of Langerhans islets in pancreatic sections of db/db mice; format: in vivo; conditions: for Maximum area of Langerhans islets on administration × 10^3 / The numbers of Langerhans islets in sections on 43rd day of administration: 1 μg/animal orally once a day for 42 days; for Maximum area of Langerhans islets on administration × 10^3: negative sample 44.5 ± 17.7; for The numbers of Langerhans islets in sections on 43rd day of administration: pancreatic sections of 3 positions, HE staining, negative sample 40.3 ± 9.7; for Action of protecting pancreatic tissues, especially endocrine cells: 42 days oral
# From the text: In this test, the pancreatic tissue protecting action of compounds having a lophenol skeleton was examined by using db/db mice known as a model animal of pancreatic hypofunction or pancreatic tissue dysfunction.
# 4-methyl-cholest-7-en-3-ol produced in Preparation Example mentioned above was used as test sample 1, 4-methyl-ergost-7-en-3-ol was used as test sample 2, 4-methyl-stigmast-7-en-3-ol was used as test samples 3. Further, β-sitosterol (Tama Biochemical Co., Ltd.) was used as a control sample.
# In this test, 6-week old male db/db mice (purchased from Clea Japan, Inc.) were used. These mice were divided into groups, each consisting of 7 animals. Each test sample was dissolved in DMSO, and the concentration was adjusted to 1 μg/mL with physiological saline. The final DMSO concentration was adjusted to 0.2%. The model mice were orally administered with 1 mL of the test sample once a day everyday for 42 days with a sonde. On the 43rd day of the continuous administration, the pancreas was extracted, divided into three portions of upstream, midstream and downstream from the duodenum side, and fixed with a formalin solution, and then paraffin blocks were prepared in a conventional manner. Section slides were prepared from the paraffin blocks, and subjected to hematoxylin-eosin staining. The numbers of Langerhans islets existing on the sections of the 3 position of the pancreas, and area of Langerhans islet having the maximum area on each section were measured by using an ocular micrometer on a microscope (“ECLIPSE E600”, NIKON CORP.).
# [3] = 0.1 μg/animal orally once a day for 42 days
# [4] = 1 μg/animal orally once a day for 42 days
SMILES,"Serum insulin levels on 43rd day of administration [1, 3]",Pancreatic function (insulin production ability) protecting effect [1],"Serum insulin levels on 43rd day of administration [1, 4]",Serum insulin level as % of that observed in the negative test [1],Maximum area of Langerhans islets on administration × 10^3 ([2]; 43rd day),The numbers of Langerhans islets in sections on 43rd day of administration [2],"Maximum area of Langerhans islets, times as large as that observed in the negative test ([2]; 1 μg/animal, 43rd day)","Number of Langerhans islets as % of the number in the negative sample-administered mice ([2]; 1 μg/animal, 43rd day)","Action of protecting pancreatic tissues, especially endocrine cells ([2]; 1 μg/animal)","Pancreatic function protecting effect ([2]; 1 μg/animal, 43rd day)","Change of numbers and maximum areas of Langerhans islets ([2]; 1 μg/animal, 43rd day, versus negative sample)"
"CC(C)CCCC(C)C1CCC2C3=CCC4C(C)C(O)CCC4(C)C3CCC21C (stereo not shown) [Test sample 1, 4-methyl-cholest-7-en-3-ol]",2.33 ± 1.23 ng/mL,any significant pancreatic function protecting effect was not observed,3.67 ± 0.80 ng/mL,184%,160.0 ± 116.0 × 10^3 μm^2,75.7 ± 24.7 piece,3.6 times,188%,had an action of protecting pancreatic tissues,–,–
"CC[C@H](CC[C@@H](C)[C@H]1CC[C@H]2[C@@H]3CC=C4C[C@@H](O)CC[C@]4(C)[C@H]3CC[C@]12C)C(C)C [Control sample, β-sitosterol, reference compound]",–,–,–,–,69.1 ± 40.6 × 10^3 μm^2,42.3 ± 20.1 piece,–,–,–,any pancreatic function protecting effect was not observed,don't show any significant change
"CCC(CCC(C)C1CCC2C3=CCC4C(C)C(O)CCC4(C)C3CCC21C)C(C)C (stereo not shown) [Test sample 3, 4-methyl-stigmast-7-en-3-ol]",2.23 ± 0.68 ng/mL,any significant pancreatic function protecting effect was not observed,4.20 ± 1.86 ng/mL,211%,122.6 ± 51.4 × 10^3 μm^2,60.4 ± 11.6 piece,2.8 times,150%,had an action of protecting pancreatic tissues,–,–
"CC(C)C(C)CCC(C)C1CCC2C3=CCC4C(C)C(O)CCC4(C)C3CCC21C (stereo not shown) [Test sample 2, 4-methyl-ergost-7-en-3-ol]",2.32 ± 1.52 ng/mL,any significant pancreatic function protecting effect was not observed,4.17 ± 2.23 ng/mL,210%,178.7 ± 143.4 × 10^3 μm^2,64.1 ± 9.1 piece,4 times,159%,had an action of protecting pancreatic tissues,–,–
